What was measured:
Assay in all cases: relative viability (nuclei count vs DMSO), 5 days (fraction); higher = more cells survive
AZD5582 + Bortezomib = compound: C[C@@H](C(=O)N[C@@H](C1CCCCC1)C(=O)N2CCC[C@H]2C(=O)N[C@@H]3[C@@H](CC4=CC=CC=C34)OCC#CC#CCO[C@@H]5CC6=CC=CC=C6[C@@H]5NC(=O)[C@@H]7CCCN7C(=O)[C@H](C8CCCCC8)NC(=O)[C@H](C)NC)NC [AZD5582] + CC(C)C[C@H](NC(=O)[C@H](Cc1ccccc1)NC(=O)c1cnccn1)B(O)O [Bortezomib] (partner 0.002 µM)
How it was run: (§1)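 The day after seeding in 1536-well plates, lung cancer cell lines were treated by pin tool with a single drug, or with a fixed anchor-drug dose together with five library-drug doses (not always all listed) in √10 steps. After 5 days, a combined fix-and-stain solution (final 0.05% Triton X-100, 1% formaldehyde, 1 ug/ml Hoechst) was added. Nuclei counted on 4× images gave relative viability as treated counts over vehicle counts, reported as the median of duplicate plates.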

AZD5582 + Vorinostat = compound: C[C@@H](C(=O)N[C@@H](C1CCCCC1)C(=O)N2CCC[C@H]2C(=O)N[C@@H]3[C@@H](CC4=CC=CC=C34)OCC#CC#CCO[C@@H]5CC6=CC=CC=C6[C@@H]5NC(=O)[C@@H]7CCCN7C(=O)[C@H](C8CCCCC8)NC(=O)[C@H](C)NC)NC [AZD5582] + O=C(CCCCCCC(=O)Nc1ccccc1)NO [Vorinostat] (partner 1 µM)
How it was run: as §1

[1] = compound: Cn1nnc2c(C(N)=O)ncn2c1=O [Temozolomide] + N=C(N)NC(=N)NCCc1ccccc1 [Phenformin] (partner 250 µM)
How it was run: as §1

Temozolomide + AZD7762 = compound: Cn1nnc2c(C(N)=O)ncn2c1=O [Temozolomide] + NC(=O)Nc1cc(-c2cccc(F)c2)sc1C(=O)N[C@H]1CCCNC1 [AZD7762] (partner 0.2 µM)
How it was run: as §1

Cell Line	relative viability (AZD5582 + Bortezomib; first compound 0.001581 µM)	relative viability (AZD5582 + Bortezomib; first compound 0.005 µM)	relative viability (AZD5582 + Bortezomib; first compound 0.01581 µM)	relative viability (AZD5582 + Bortezomib; first compound 0.05 µM)	relative viability (AZD5582 + Vorinostat; first compound 0.001581 µM)	relative viability (AZD5582 + Vorinostat; first compound 0.005 µM)	relative viability (AZD5582 + Vorinostat; first compound 0.01581 µM)	relative viability (AZD5582 + Vorinostat; first compound 0.05 µM)	relative viability ([1]; first compound 0.6325 µM)	relative viability ([1]; first compound 2 µM)	relative viability ([1]; first compound 6.325 µM)	relative viability ([1]; first compound 20 µM)	relative viability (Temozolomide + AZD7762; first compound 0.2 µM)	relative viability (Temozolomide + AZD7762; first compound 0.6325 µM)	relative viability (Temozolomide + AZD7762; first compound 2 µM)	relative viability (Temozolomide + AZD7762; first compound 6.325 µM)	relative viability (Temozolomide + AZD7762; first compound 20 µM)	relative viability ([1]; first compound 0.2 µM)
NCI-H322M	1.18	1.37	1.18	1.41	0.924	1.01	0.97	1.17	0.821	0.811	0.769	0.574	0.558	0.559	0.545	0.547	0.455	
NCI-H441	0.379	0.495	0.47	0.418	0.723	0.708	0.889	0.921	0.892	0.93	0.738	0.944	1.27	1.12	1.04	1.13	1.13	1.07
NCI-H460	1.02	1.05	1.06	1.34	0.655	0.686	0.697	1.01	0.54	0.492	0.488	0.478	0.694	0.643	0.694	0.611	0.619	0.52
NCI-H596	1.35	1.2	1.13	0.549	0.506		0.629	0.527	0.827	0.658	0.659	0.787	1.29	1.09	1.17	1.02	1.29	0.797
NCI-H647	0.878	0.907	0.997	0.871	0.353	0.515	0.635	0.585	0.626	0.593	0.463	0.208	0.674	0.549	0.392	0.205	0.145	0.624
NCI-H650	0.757	0.654	0.57	0.582	0.316	0.305	0.308	0.619	0.443	0.403	0.404	0.423	0.973	1.16	0.938	0.953	0.879	0.547
NCI-H727	0.761	0.932	0.851	1.04	1.06	1.13	1.01	1.16	0.659	0.572	0.462	0.544		0.521	0.512	0.606	0.412	0.653
NCI-H838	0.809	1.21	0.382	0.486	0.716	0.775	0.855	0.956	0.616	0.676	0.568	0.635	0.914	0.977	0.961	0.89	0.881	0.63
NCI-H1355	1.02	1.14	1.11	1.11	0.568	0.711	0.535	0.596	0.517	0.522	0.44	0.452	0.736	0.743	0.716	0.729	0.751	0.499

From the supplement of paper PMC10307832
